Measured values: patent US7622499B2, “β-Benzyloxyaspartate derivatives with photosensitive groups” (Suntory Holdings Limited, priority 2003, dated 2009)

Key:
[1] = system: EAAT1-5 subtypes; settings: cited from earlier work; for inhibitory activity compared with L-TBOA: prior application of the inventors
[2] = Photolysis with UV lamp, photolysis rate measured by HPLC; format: physicochemical; settings: buffer, pH 7.4
Experimental: Photolysis was conducted by the known method (Takaoka, K. et al., Bioorganic & Medicinal Chemistry Letters, 13, 965-970, 2003), and the obtained samples were quantified by HPLC or a glutamate uptake assay.
The caged inhibitor was dissolved to 100 μM in a PBS(+) solution [140 mM NaCl, 5 mM KCl, 8 mM Na2HPO4, 1.5 mM KH2PO4, 1 mM CaCl2, 1 mM MgCl2, pH 7.4], and a 300 μL portion of the solution was placed in a quartz cuvette with a 1 mm optical path and situated at a location at 10 cm from a UV lamp (Spectroline ENF-260C/J, product of Spectronics Co.), and then covered with a black box and irradiated with 365 nm UV rays at room temperature for 1-120 minutes. The luminous energy under these conditions was approximately 0.5 J/cm^2 with 10 minutes of irradiation. The irradiated sample was quantified by HPLC.
The sample was subjected to UV irradiation for a prescribed period and then analyzed by HPLC [column: SP-120-5-ODS-AP (Daiso CO.); eluent, CH3CN:H2O:TFA=32:68:0.1 or gradient from CH3CN:H2O:TFA=32:68:0.1 to 50:50:0.1], and the concentration was determined from the ratio of UV absorption at 254 nm with respect to an internal substance (3′,4′-dimethoxyacetophenone, 10 μM). The percentage with respect to the concentration prior to irradiation was calculated and graphed, and the half-life was determined.

[3] = system: glutamate receptor; settings: prior art statement; cited from earlier work

SMILES	inhibitory activity compared with L-TBOA [1]	half-life (photolysis, decay of caged compound) [2]	other results
N[C@H](C(=O)O)[C@H](OCc1cccc(NC(=O)c2ccc(C(F)(F)F)cc2)c1)C(=O)O [TFB-TBOA]	more powerful inhibitory activity than L-TBOA		
O=C(O)COc1cc2oc(=O)cc(COC(=O)N[C@H](C(=O)O)[C@H](OCc3ccccc3)C(=O)O)c2cc1OCC(=O)O [5b, (2S,3S)-3-benzyloxy-N-[6,7-bis(carboxymethoxy)coumarin-4-ylmethoxy]carbonylaspartate]		7.8 min	
O=C(O)COc1ccc2c(COC(=O)N[C@H](C(=O)O)[C@H](OCc3ccccc3)C(=O)O)cc(=O)oc2c1 [5a, (2S,3S)-3-benzyloxy-N-[7-(carboxymethoxy)coumarin-4-ylmethoxy]carbonylaspartate]		19 min	
COc1ccc(C(=O)Nc2cccc(CO[C@H](C(=O)O)[C@H](N)C(=O)O)c2)cc1 [PMB-TBOA]	more powerful inhibitory activity than L-TBOA		
N[C@H](C(=O)O)[C@H](OCc1ccccc1)C(=O)O [L-TBOA, L-threo-β-benzyloxyaspartate]			affinity for glutamate receptor compared to existing inhibitors [3]: lower affinity for glutamate receptor compared to existing inhibitors; blocker activity on glutamate transporters ([1]; prior art statement): Particularly powerful blocker activity
